From patent US20120035265A1, “COMPOSITIONS, METHODS, AND DEVICES FOR THE TREATMENT OF DYSMENORRHEA” (MediciNova, Inc., priority 2010, published 2012)

Experiments:
[1] = system: uterine muscles isolated from pregnant rabbits; assay: Spontaneous contractions of isolated uterine muscles of pregnant rabbits (organ bath); assay type: cell-based, rabbit
Procedure: Uterine muscles of pregnant rabbits were isolated, and experiments were conducted based on organ-bath method. After specimens of uterine muscles were suspended and spontaneous contractions was stabilized, the test substance, control substance or positive control substance was administered every 10 min, while doses were increased gradually. Efficacy of drugs was evaluated by comparing the sum of uterine contraction for 10 min before and after administration of drugs, defining the former as 100%.

[2] = system: pregnant sheep; assay: Oxytocin-induced uterine contractions, cardiovascular system and general metabolism of pregnant sheep and their fetuses; assay type: in vivo
Procedure: MN-221 (0.001, 0.003, 0.01, 0.03, 0.1 and 0.3 μg/kg/min) was weighed and dissolved in physiological saline. At 123-125 days of pregnancy, sheep were infused with oxytocin (1.0 mU/kg/min) to induce uterine contractions. One hour later, MN-221 was infused for 3 consecutive hours beginning at a dose of 0.001 μg/kg/min for 30 min and increasing stepwise every 30 min to 0.3 μg/kg/min in the MN-221 group (N=4). The control received saline instead (N=4).

[3] = system: uterine muscle isolated from pregnant rats; assay: PG F2α-induced contraction of uterine muscle isolated from pregnant rats; assay type: cell-based, rat; conditions: Rattus norvegicus, contraction induced with 5 μg/mL of PG F2α, mean ± standard error of 10 samples
Procedure: After SD-strain rats on Day 17 of pregnancy were exsanguinated to death, the uterus was isolated to prepare up to 8 myometrial strips (about 4 mm×10 mm) per animal in the direction of the longitudinal muscle while avoiding the adhesion to the placenta. Each strip was suspended in an organ bath containing 10 mL of a modified Locke-Ringer solution at […] (aerated with 95% O2+5% CO2 gas) with a load of about 1.0 g. After the suspended sample became stable for static tension, 5 μg/mL of PG F2α or 1 mU/mL of oxytocin was added to induce contraction. After the sample was allowed to stand for at least 30 minutes to confirm stable rhythmic contraction for frequency and amplitude, the test, control, or positive control substance solution was added cumulatively at intervals of 5 minutes. After the treatment was completed, 1×10^−5 mol/L of forskolin was added to obtain maximal relaxation. The contractile force of the uterine sample was delivered via a force displacement transducer to a strain pressure amplifier and recorded on a Rectigraph.
Considering the sum of the uterine contraction for 5 minutes before treatment as 100%, the response rate to each concentration of the test, control, or positive control substance solution was calculated from the sum of uterine contraction after treatment for both PG F2α and oxytocin induced contraction. Then, the response rates obtained were used to prepare a concentration-response curve for each sample. The maximum relaxation obtained by adding forskolin was considered as a baseline. Variable points (peaks) with amplitude (tension) of […] or lower were excluded from analysis. Samples showing any of the following events were not used for the study or excluded from analysis.
Microsoft® Excel 2000 (Microsoft Corp.) was used to sum up and calculate data and prepare tables and figures. Using a concentration-response curve prepared for each sample (X axis: log value of the concentration of the substance added, Y axis: response rate), a negative log value (pEC50) of the concentration that inhibited the uterine contraction by 50% (EC50) was calculated from a straight line connecting the 2 concentrations just above and below 50%, and then converted to EC50 (unit: mol/L).

[4] = system: uterine muscle isolated from pregnant rats; assay: Spontaneous contractions of uterine muscle isolated from pregnant rats (organ bath); assay type: cell-based; conditions: pregnant rat uterine muscle, mean ± standard error, 10 samples
Procedure: The experimental operation of this study was as reported by T. Kawarabayashi et al.^1 After each SD-strain rat on Day 21 of pregnancy were exsanguinated to death, the uterus was isolated to prepare up to 8 myometrial strips (about 4 mm×10 mm) in the direction of the longitudinal muscle, with the adhesion to the placenta being avoided.
Each myometrial strip was suspended in an organ bath containing 10 mL of a Locke-Ringer solution at 37° C. (aerated with 95% O2+5% CO2 gas) with a load of about 1.0 g. After the amplitude and frequency of the muscular spontaneous contractions became stable, distilled water was added. Five minutes later, the test, control, or positive control substance was added cumulatively with intervals of 5 minutes. The myometrial contractile force was delivered to a strain pressure amplifier through a force displacement transducer and recorded on a Rectigraph.
Considering the sum of the uterine contraction during 5 minutes after the addition of distilled water as 100%, the response rate to each concentration of the test, control, or positive control substance was calculated from the sum of the uterine contraction after each was added. Variable points (peaks) with amplitude (tension) of 0.2 g or lower were excluded from analysis. Samples showing any of the following events were not used for the study or excluded from analysis.
Microsoft® Excel 2000 (Microsoft Corp.) was used to sum up and analyze data and prepare tables and figures. Using a concentration-response curve obtained for each sample (X axis: log value of the concentration of the drug added, Y axis: response rate), a negative log value (pD2) of the concentration that inhibited the uterine contraction by 50% (EC50) was calculated from a straight line that connects the 2 concentrations above and below 50%, and converted to EC50.

[5] = system: heart rate and mean blood pressure of dam; assay: Heart rate and mean blood pressure of dam in anesthetized pregnant rats; assay type: in vivo, rat; conditions: intravenous cumulative dosing
Procedure: Rats were anesthetized with urethane, and experiments were conducted based on balloon method. Uterine activity and mean blood pressure of dam were led to a pressure amplifier via a pressure transducer. As for heart rate, pulse waves were led to tachometer. Recti-graphs were used for recording. The test substance, control substance, or positive control substance was administered intravenously and cumulatively every 15 minutes, while doses were increased gradually.

CN(C)C(=O)COc1ccc2c(c1)C[C@@H](NC[C@H](O)c1ccc(O)c(CCO)c1)CC2 [MN-221, (−)-bis(2-{[(2S)-2-({(2R)-2-hydroxy-2-[4-hydroxy-3-(2-hydroxyethyl)phenyl]ethyl}amino)-1,2,3,4-tetrahydronaphthalen-7-yl]oxy}-N,N-dimethyl-acetamide) monosulfate]
EC50 ([1]; Oryctolagus cuniculus, spontaneous contractions, pregnant rabbit uterine muscles, read-out: pD2 values (converted)): 1.91 nM | inhibitory effect against oxytocin-induced contractions of isolated uterine muscles ([1]; as worded in Example 6 (spontaneous contraction study)): demonstrated inhibitory effect | inhibitory effect against spontaneous contractions of uterine muscles, comparison ([1]; pregnant rabbit uterine muscles): clearly stronger than that of HSR-81, ritodrine and terbutaline | maternal heart rate, diastolic and mean blood pressure, base excess, blood K+, blood lactate, plasma glucose, insulin, non-esterified fatty acid levels, fetal plasma glucose and insulin levels ([2]; MN-221 group versus control (saline) group): Significant differences between the two groups | suppression of oxytocin-induced uterine contractions ([2]; at doses over 0.03 μg/kg/min, infusion, oxytocin 1.0 mU/kg/min, pregnant sheep): more than 90% | cardiovascular and metabolic side effects ([2]; pregnant sheep and fetuses, stepwise infusion 0.001 to 0.3 μg/kg/min): reduced cardiovascular and metabolic side effects | EC50 ([3]; read-out: EC50): 66.4 ± 19.3 nM | EC50 ([3]; read-out: pEC50 (converted)): 51.3 nM | EC50 ([4]; read-out: EC50): 1.01 ± 0.27 nM | EC50 ([4]; read-out: pD2 (converted)): 0.692 nM | decrease in mean blood pressure of dam [5]: significantly small | effect to increase heart rate of dam [5]: significantly weaker than that of any of other agents
